What was measured:
[1] = system: human umbilical-vein endothelial cells (HUVEC); experiment: Tube Formation Assay (TFA) Test, HUVEC in collagen gel; assay type: cell-based; details: Tables 75-83, 0.32 mM sample solution, method as for Compounds 1 through 60; for inhibition at 320 µM (stock): Homo sapiens, HUVEC, read-out: TFA Inhibition rate (%)
Experimental: Furthermore, the sample liquids of compounds used in the CPA and CMA tests were prepared in the manner described below. Firstly, after weighing out each compound, a calculated amount of DMSO was added. After dissolving the compound in the DMSO, phosphate buffered physiological saline (PBS (-)) was added to bring the sample concentration to 1 mg/ml in PBS (-). The amount of DMSO used to dissolve the compounds was adjusted in advance to that the concentration of DMSO at that time was 5%. The resulting liquids were diluted 10-fold with 5% DMSO-PBS (-) solution to prepare sample solutions having a concentration of 0.1 mg/ml. In the TFA test, 320 μl of the prepared 1 mg/ml sample solutions were removed followed by addition of 680 μl of PBS (-) to prepare samples having a concentration of […]. Moreover, 100 μl of this solution was removed followed by addition of 900 μl of PBS (-) to dilute 10-fold and prepare samples having a concentration of 1 μg/ml. P [Cell Proliferation Assay (CPA) Test]
To begin with, 8 volumes of Type 1-A cell matrix (manufactured by Gibco Co.), 1 volume of 10×M119, and 1 volume of reconstituted buffer [200 mM HEPES, 0.05 N sodium hydroxide, 260 mM sodium bicarbonate] were slowly mixed under cooling with ice while avoiding bubbling to form a collagen gel. This collagen gel was distributed in a NUNC 24-well plate at 310 μl/well followed by allowing to stand undisturbed for 2 hours at 37° C. to solidify the gel.
Next, the 7th subculture of HUVEC (1×10^5 cells/ml) obtained from the first generation in the same manner as above were disseminated at 500 μl/well. The cells were cultured for 2 hours at 37° C. to allow the cells to make contact with the collagen. After then removing the medium by aspiration, 50 μl of sample solution were added followed by addition of 310 μl/well of freshly prepared collagen gel and culturing for 1 hour and 10 minutes at 37° C. to solidify the double-layer gel.
1 ml/well of M-199 medium containing 20% FCS, 30 ng /ml of b-FGF and 0.1 μM PMA were added to the wells followed by culturing for 20 hours at 37° C. in the presence of 5% CO2.
Measurement of the lengths of the formed tubes was performed using the public domain NIH Image with a computer.
Evaluation was performed by calculating the inhibition rate (%) of tube formation according to the following formula.
Inhibition rate (%)=100-((formed tube length in presence of sample-formed tube length in presence of control (-))×100/(formed tube length in presence of control (+)-formed tube length in presence of control (-)))
(§1) Samples were prepared using the present compounds of Compound No. I-60 through I-315. More specifically, 32 μl of a 20 mM sample solution dissolved in dimethylsulfoxide (DMSO) were removed and brought to a volume of 1 ml with phosphate-buffered saline (PBS) to prepare a sample solution having a concentration of 0.32 mM (containing 3.2% DMSO).
The testing method used for these compounds was the same as that used for the compounds of Compound No. 1 through 60 previously described.

HUFEC = experiment: Cell Migration Assay (CMA) Test, inhibitory rate with control (-) correction; assay type: cell-based, human; details: 125 μl of 0.32 mM sample solution in 4.0 ml medium, 80% or more = remarkable; for CMA Inhibition rate (%): 24 hours; for inhibition at 320 µM (stock): Homo sapiens, 24 h
Experimental: as §1
After disseminating the 7th subculture of […] obtained from the first generation at 4 ml/well (3.0×10^5 cells/well) in a collagen-coated 6-well plate (NUNC), the cells were cultured for 48 hours at 37° C. in the presence of 5% CO2. The cells reached nearly a completely confluent state as a result of this culturing.
A double-edged, disposable razor blade was divided into four sections, of which one of those sections was pinched between a pair of forceps. Using this piece of razor blade, the cell surface in the above confluent state was scraped off.
After washing the surface of the wells from which the cells had been scraped off with medium, 4.0 ml of fresh M199 (2+) medium were placed in the wells. 4.0 ml of M199 medium were added to the control (-) well.
125 μl of sample solution (0.32 mM, containing 3.2% dimethylsulfoxide) were added to the wells.
125 μl of PBS solution containing 3.2% dimethylsulfoxide were added to the control wells instead of sample. The cells were cultured for 24 hours at 37° C. in the presence of 5% CO2. After discarding the culture liquid, the cells were fixed for 30 minutes with methanol. Next, after […] the cells for 4 hours with Giemsa stain, the plates were washed with tap water and air dried.
Measurement of cell migration was performed by microscopically counting the number of cells that had newly migrated within the range of a 1 mm×1 mm block. […] The total number of cells counted in blocks 1 through 5 were then totaled to determine the overall total number of cells. Four fields were counted for each well.
Evaluation was performed determining the cell migration inhibitory rate (%) according to the following equation.
Inhibitory rate=100-((number of migrating cells to which sample was added-number of migrating cells of control (-))×100/(number of migrating cells of control (+)-number of migrating cells of control (-)))
If this inhibitory rate was 80% or more, cell migration was assessed as being remarkable.

CNC(=O)O[C@@H]1OC=C(C(=O)O)[C@H]2CC=C(C)[C@@H]12 [I-313]
TFA (inhibition rate, %) [1]: 27.0%
CMA Inhibition rate (%) (HUFEC): 60.2%

COC(=O)C1=CO[C@@H](OC(=O)NC(C)C)[C@@H]2C(C)=CC[C@H]12 [I-155]
inhibition at 320 µM (stock) [1]: 45.7%
inhibition at 320 µM (stock) (HUFEC): 19.9%

C[C@]12O[C@H]1C[C@@H]1C(C(=O)O)=CO[C@@H](OC(=O)NCCCl)[C@@H]12 [I-67]
TFA (inhibition rate, %) [1]: 19.7%
CMA Inhibition rate (%) (HUFEC): 29.5%

COC(=O)C1=CO[C@@H](OC(=O)NCCCl)[C@@H]2C(C)=CC[C@H]12 [I-173]
inhibition at 320 µM (stock) [1]: 11.4%
inhibition at 320 µM (stock) (HUFEC): 108%

COC(=O)C1=CO[C@@H](OC(=O)NC(=O)c2ccccc2)[C@@H]2C(C)=CC[C@H]12 [I-153]
inhibition at 320 µM (stock) [1]: 19%
inhibition at 320 µM (stock) (HUFEC): 22.3%

CCOC(=O)c1ccc(NC(=O)O[C@@H]2OC=C(C(=O)OC)[C@H]3CC=C(C)[C@@H]23)cc1 [I-167]
inhibition at 320 µM (stock) [1]: 5.1%
inhibition at 320 µM (stock) (HUFEC): 4.1%

COC(=O)C1=CO[C@@H](OC(=O)N2CCOCC2)[C@@H]2C(C)=CC[C@H]12 [I-85]
inhibition at 320 µM (stock) [1]: 15.6%
inhibition at 320 µM (stock) (HUFEC): 31%

COC(=O)C1=CO[C@@H](OC(=O)N(C)C)[C@@H]2C(C)=CC[C@H]12 [I-136]
inhibition at 320 µM (stock) [1]: 15.6%
inhibition at 320 µM (stock) (HUFEC): 8.3%

COC(=O)C1=CO[C@@H](OC(=O)NCC(C)C)[C@H]2[C@@H]1CC[C@@H]2C [I-190]
inhibition at 320 µM (stock) [1]: 12.8%
inhibition at 320 µM (stock) (HUFEC): 21.8%

COC(=O)C1=CO[C@@H](OC(=O)NCCOCCO)[C@@H]2C(C)=CC[C@H]12 [I-101]
inhibition at 320 µM (stock) [1]: 6.3%
inhibition at 320 µM (stock) (HUFEC): 15.7%

COC(=O)C1=CO[C@@H](OC(=O)NCc2ccc(Cl)c(Cl)c2)[C@@H]2C(C)=CC[C@H]12 [I-74]
inhibition at 320 µM (stock) [1]: 5.8%
inhibition at 320 µM (stock) (HUFEC): 23.4%

COC(=O)C1=CO[C@@H](OC(=O)Nc2c(F)cccc2F)[C@H]2[C@@H]1CC[C@@H]2C [I-276]
inhibition at 320 µM (stock) [1]: 8.2%
inhibition at 320 µM (stock) (HUFEC): 5.7%

COC(=O)C1=CO[C@@H](OC(=O)N(C)CCN(C)C)[C@@H]2C(C)=CC[C@H]12 [I-86]
inhibition at 320 µM (stock) [1]: 5.2%
inhibition at 320 µM (stock) (HUFEC): 9.9%

CNC(=O)O[C@@H]1OC=C(C(=O)OC)[C@H]2CC=C(CF)C12 (stereo in doubt) [I-314, (1S,4aS,7aR)-7-(fluoromethyl)-1-(methylcarbamoyloxy)-1,4a,5,7a-tetrahydrocyclopenta [c] pyrane-4-carboxylic acid methylester]
inhibition at 320 µM (stock) [1]: 9.4%
inhibition at 320 µM (stock) (HUFEC): 47.2%

COC(=O)C1=CO[C@@H](OC(=O)NC2CC2)[C@@H]2C(C)=CC[C@H]12 [I-113]
inhibition at 320 µM (stock) [1]: 7.9%
inhibition at 320 µM (stock) (HUFEC): 34.4%

COC(=O)C1=CO[C@@H](OC(=O)NCCOCCO)[C@H]2[C@@H]1CC[C@@H]2C [I-202]
inhibition at 320 µM (stock) [1]: 26.2%
inhibition at 320 µM (stock) (HUFEC): 6.5%

COC(=O)C1=CO[C@@H](OC(=O)Nc2ccc([N+](=O)[O-])cc2)[C@@H]2C(C)=CC[C@H]12 [I-168]
inhibition at 320 µM (stock) [1]: 4.2%
inhibition at 320 µM (stock) (HUFEC): 17.2%

COC(=O)C1=CO[C@@H](OC(=O)N2CCSCC2)[C@@H]2C(C)=CC[C@H]12 [I-114]
inhibition at 320 µM (stock) [1]: 6.8%
inhibition at 320 µM (stock) (HUFEC): 9.4%

COC(=O)C1=CO[C@@H](OC(=O)NCc2cccc(F)c2)[C@H]2[C@@H]1CC[C@@H]2C [I-232]
inhibition at 320 µM (stock) [1]: 2.9%
inhibition at 320 µM (stock) (HUFEC): 6.5%

COC(=O)C1=CO[C@@H](OC(=O)Nc2ccc([N+](=O)[O-])cc2)[C@H]2[C@@H]1CC[C@@H]2C [I-269]
inhibition at 320 µM (stock) [1]: 8.3%
inhibition at 320 µM (stock) (HUFEC): 19.5%

COC(=O)CNC(=O)O[C@@H]1OC=C(C(=O)OC)[C@H]2CC=C(C)[C@@H]12 [I-144]
inhibition at 320 µM (stock) [1]: 7.5%
inhibition at 320 µM (stock) (HUFEC): 31.2%

COC(=O)C1=CO[C@@H](OC(=O)NCCCl)[C@@H]2C(COC(=O)NCCCl)=CC[C@H]12 [I-288]
inhibition at 320 µM (stock) [1]: 2.4%
inhibition at 320 µM (stock) (HUFEC): 15.9%

COC(=O)C1=CO[C@@H](OC(N)=O)[C@@H]2C(C)=CC[C@H]12 [I-70]
inhibition at 320 µM (stock) [1]: 75.4%
inhibition at 320 µM (stock) (HUFEC): 7.1%

CONC(=O)O[C@@H]1OC=C(C(=O)OC)[C@H]2CC[C@H](C)[C@@H]12 [I-238]
inhibition at 320 µM (stock) [1]: 17.8%
inhibition at 320 µM (stock) (HUFEC): 5.9%

CNC(=O)O[C@@H]1OC=C(C(=O)N2CCN(CCO)CC2)[C@H]2CC=C(C)[C@@H]12 [I-309]
inhibition at 320 µM (stock) [1]: 5.2%
inhibition at 320 µM (stock) (HUFEC): 48%

COC(=O)C1=CO[C@@H](OC(=O)N2CCN(c3cccc(C(F)(F)F)c3)CC2)[C@@H]2C(C)=CC[C@H]12 [I-130]
inhibition at 320 µM (stock) [1]: 5.5%
inhibition at 320 µM (stock) (HUFEC): 7.5%

COC(=O)C1=CO[C@@H](OC(=O)NCc2ccc(Cl)cc2)[C@@H]2C(C)=CC[C@H]12 [I-109]
inhibition at 320 µM (stock) [1]: 7.2%
inhibition at 320 µM (stock) (HUFEC): 21.5%

COC(=O)C1=CO[C@@H](OC(=O)NCc2ccc(F)cc2)[C@@H]2C(C)=CC[C@H]12 [I-108]
inhibition at 320 µM (stock) [1]: 3%
inhibition at 320 µM (stock) (HUFEC): 11.7%

COC(=O)C1=CO[C@@H](OC(=O)NC2CC2)[C@H]2[C@@H]1CC[C@@H]2C [I-218]
inhibition at 320 µM (stock) [1]: 5.4%
inhibition at 320 µM (stock) (HUFEC): 25%

COC(=O)C1=CO[C@@H](OC(=O)NCCCN2CCOCC2)[C@@H]2C(C)=CC[C@H]12 [I-124]
inhibition at 320 µM (stock) [1]: 2.6%
inhibition at 320 µM (stock) (HUFEC): 5.7%

COC(=O)C1=CO[C@@H](OC(=O)NCCN2CCCCC2)[C@H]2[C@@H]1CC[C@@H]2C [I-223]
inhibition at 320 µM (stock) [1]: 17.9%
inhibition at 320 µM (stock) (HUFEC): 18.8%

CCOC(=O)C1=CO[C@@H](OC(=O)NC)[C@@H]2C(C)=CC[C@H]12 [I-312]
inhibition at 320 µM (stock) [1]: 41.8%
inhibition at 320 µM (stock) (HUFEC): 34.9%

CNC(=O)OCC1=CC[C@@H]2C(C(=O)OC)=CO[C@@H](OC(=O)NC)[C@H]12 [I-287]
inhibition at 320 µM (stock) [1]: 30.1%
inhibition at 320 µM (stock) (HUFEC): 35.2%

COC(=O)C1=CO[C@@H](OC(=O)N2CCSCC2)[C@H]2[C@@H]1CC[C@@H]2C [I-219]
inhibition at 320 µM (stock) [1]: 30.6%
inhibition at 320 µM (stock) (HUFEC): 6.3%

COC(=O)C1=CO[C@@H](OC(=O)Nc2ccccc2F)[C@@H]2C(C)=CC[C@H]12 [I-158]
inhibition at 320 µM (stock) [1]: 8.5%
inhibition at 320 µM (stock) (HUFEC): 7.3%

COCCCNC(=O)O[C@@H]1OC=C(C(=O)OC)[C@H]2CC=C(C)[C@@H]12 [I-121]
inhibition at 320 µM (stock) [1]: 9.4%
inhibition at 320 µM (stock) (HUFEC): 7.1%

COC(=O)C1=CO[C@@H](OC(=O)NCc2ccccc2F)[C@H]2[C@@H]1CC[C@@H]2C [I-231]
inhibition at 320 µM (stock) [1]: 5.9%
inhibition at 320 µM (stock) (HUFEC): 9.7%

COC(=O)C1=CO[C@@H](OC(=O)Nc2ccc(Cl)c(Cl)c2)[C@@H]2C(C)=CC[C@H]12 [I-163]
inhibition at 320 µM (stock) [1]: 11.5%
inhibition at 320 µM (stock) (HUFEC): 5.6%

Source: patent US6225478A, “Iridoid derivatives and neovascularization inhibitors containing the same as active ingredient” (Tsumura & Co., priority 1999, dated 2001)
